# Where “and” joins values, the source holds several entries; their conditions need not be identical. Equal entries are not always repeated. Results filed as inconclusive are left out. Positions of bridges follow the written chain, without caps; N, C: chain ends. Residues, ends and D or L forms follow the SMILES beside them.
# Tested on: CD8F1 mice, subcutaneous mammary adenocarcinoma, T/C%
# Assay: NCI In Vivo Anticancer Drug Screen. Data for tumor model Mammary Adenocarcinoma CD8F1 (subcutaneous) in CD8F1
# Details: higher = larger tumour
# Procedure, shortened: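 Tumor-bearing mice, transplantable model; readout survival or tumor size; value = treated (T) / vehicle control (C).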
# [1] = endpoint: median tumor weight (est.), dose: 6.25 mg/kg/injection, schedule: Q07DX005 (ip), vehicle: Klucel (hydroxypropylcellulose) (HPC)
# [2] = endpoint: median tumor weight (est.), dose: 12.5 mg/kg/injection, schedule: Q07DX005 (ip), vehicle: Klucel (hydroxypropylcellulose) (HPC)
structure (smiles),measurement,setting,value
CN(N=O)C(=O)N[C@@H](C=O)[C@@H](O)[C@H](O)[C@H](O)CO,T/C,"endpoint: median tumor weight (est.), dose: 16.0 mg/kg/injection, schedule: Q07DX005 (ip), vehicle: Klucel (hydroxypropylcellulose) (HPC)",90 % of control
same,T/C,"endpoint: median tumor weight (est.), dose: 16.0 mg/kg/injection, schedule: Q07DX005 (ip), vehicle: other",101 % of control and 109 % of control
same,T/C,"endpoint: median tumor weight (est.), dose: 32.0 mg/kg/injection, schedule: Q07DX005 (ip), vehicle: Klucel (hydroxypropylcellulose) (HPC)",98 % of control
same,T/C,"endpoint: median tumor weight (est.), dose: 50.0 mg/kg/injection, schedule: Q07DX005 (ip), vehicle: citric acid",98 % of control
same,T/C,"endpoint: median tumor weight (est.), dose: 64.0 mg/kg/injection, schedule: Q07DX005 (ip), vehicle: Klucel (hydroxypropylcellulose) (HPC)",95 % of control
same,T/C,"endpoint: median tumor weight (est.), dose: 64.0 mg/kg/injection, schedule: Q07DX005 (ip), vehicle: other",115 % of control
same,T/C,"endpoint: median tumor weight (est.), dose: 100.0 mg/kg/injection, schedule: Q07DX005 (ip), vehicle: citric acid",76 % of control
same,T/C,"endpoint: median tumor weight (est.), dose: 128.0 mg/kg/injection, schedule: Q07DX005 (ip), vehicle: other",87 % of control
same,T/C,"endpoint: median tumor weight (est.), dose: 200.0 mg/kg/injection, schedule: Q07DX005 (ip), vehicle: citric acid",84 % of control
same,T/C,"endpoint: median tumor weight (est.), dose: 256.0 mg/kg/injection, schedule: Q07DX005 (ip), vehicle: other",39 % of control
same,T/C,"endpoint: median tumor weight (est.), dose: 400.0 mg/kg/injection, schedule: Q07DX005 (ip), vehicle: citric acid",48 % of control
C[n+]1c(/C=C\C=C\N2CCCCC2)sc2ccccc21,T/C,"endpoint: median tumor weight (est.), dose: 0.5 mg/kg/injection, schedule: Q07DX005 (ip), vehicle: Klucel (hydroxypropylcellulose) (HPC)",114 % of control
same,T/C,"endpoint: median tumor weight (est.), dose: 1.0 mg/kg/injection, schedule: Q07DX005 (ip), vehicle: Klucel (hydroxypropylcellulose) (HPC)",108 % of control
CC[C@]1(O)C[C@H]2CN(CCc3c([nH]c4ccccc34)[C@@](C(=O)OC)(c3cc4c(cc3OC)N(C)[C@H]3[C@@](O)(C(=O)OC)[C@H](OC(C)=O)[C@]5(CC)C=CCN6CC[C@]43[C@@H]65)C2)C1,T/C,"endpoint: median tumor weight (est.), dose: 0.25 mg/kg/injection, schedule: Q07DX005 (ip), vehicle: saline",70 % of control and 71 % of control
same,T/C,"endpoint: median tumor weight (est.), dose: 0.5 mg/kg/injection, schedule: Q07DX005 (ip), vehicle: saline",63 % of control and 83 % of control and 84 % of control
same,T/C,"endpoint: median tumor weight change, dose: 1.0 mg/kg/injection, schedule: Q01DX001 (ip), vehicle: saline",81 % of control
same,T/C,"endpoint: median tumor weight change, dose: 2.0 mg/kg/injection, schedule: Q01DX001 (ip), vehicle: saline",56 % of control
same,T/C,"endpoint: median tumor weight change, dose: 4.0 mg/kg/injection, schedule: Q01DX001 (ip), vehicle: saline",28 % of control
C=C(NC(=O)C(=C)NC(=O)c1csc(C2=NC3c4csc(n4)C4NC(=O)c5csc(n5)C(C(C)(O)C(C)O)NC(=O)C5CSC(=N5)/C(=C/C)NC(=O)C(C(C)O)NC(=O)c5csc(n5)C3(CC2)NC(=O)C(C)NC(=O)C(=C)NC(=O)C(C)NC(=O)C(C(C)CC)NC2C=Cc3c(C(C)O)cc(nc3C2O)C(=O)OC4C)n1)C(N)=O (stereo not drawn),T/C,[1],72 % of control
same,T/C,[2],64 % of control and 70 % of control
same,T/C,"endpoint: median tumor weight (est.), dose: 200.0 mg/kg/injection, schedule: Q07DX005 (ip), vehicle: Klucel (hydroxypropylcellulose) (HPC)",83 % of control and 103 % of control
same,T/C,"endpoint: median tumor weight (est.), dose: 400.0 mg/kg/injection, schedule: Q07DX005 (ip), vehicle: Klucel (hydroxypropylcellulose) (HPC)",90 % of control
CC1(C)N=C(N)N=C(N)N1c1ccc(F)c(C(F)(F)F)c1,T/C,"endpoint: median tumor weight (est.), dose: 6.25 mg/kg/injection, schedule: Q07DX005 (ip), vehicle: saline",97 % of control
same,T/C,"endpoint: median tumor weight (est.), dose: 100.0 mg/kg/injection, schedule: Q07DX005 (ip), vehicle: saline",61 % of control
CNC(=O)OCc1c(COC(=O)NC)c(C)n(-c2ccc(OC)cc2)c1C,T/C,[1],113 % of control
same,T/C,[2],90 % of control
same,T/C,"endpoint: median tumor weight (est.), dose: 25.0 mg/kg/injection, schedule: Q07DX005 (ip), vehicle: Klucel (hydroxypropylcellulose) (HPC)",152 % of control
same,T/C,"endpoint: median tumor weight (est.), dose: 50.0 mg/kg/injection, schedule: Q07DX005 (ip), vehicle: Klucel (hydroxypropylcellulose) (HPC)",23 % of control
same,T/C,"endpoint: median tumor weight (est.), dose: 100.0 mg/kg/injection, schedule: Q07DX005 (ip), vehicle: Klucel (hydroxypropylcellulose) (HPC)",24 % of control
same,T/C,"endpoint: median tumor weight change, dose: 50.0 mg/kg/injection, schedule: Q01DX001 (ip), vehicle: Klucel (hydroxypropylcellulose) (HPC)",109 % of control
same,T/C,"endpoint: median tumor weight change, dose: 200.0 mg/kg/injection, schedule: Q01DX001 (ip), vehicle: Klucel (hydroxypropylcellulose) (HPC)",79 % of control
same,T/C,"endpoint: median tumor weight change, dose: 400.0 mg/kg/injection, schedule: Q01DX001 (ip), vehicle: Klucel (hydroxypropylcellulose) (HPC)",52 % of control
CN(C)CCN1C(=O)c2cccc3cc([N+](=O)[O-])cc(c23)C1=O,T/C,"endpoint: median tumor weight change, dose: 7.5 mg/kg/injection, schedule: Q01DX001 (ip), vehicle: saline with Tween-80",57 % of control
same,T/C,"endpoint: median tumor weight change, dose: 15.0 mg/kg/injection, schedule: Q01DX001 (ip), vehicle: saline with Tween-80",91 % of control
same,T/C,"endpoint: median tumor weight change, dose: 30.0 mg/kg/injection, schedule: Q01DX001 (ip), vehicle: saline with Tween-80",55 % of control
O=CC(O)C(O)C(O)C(O)C(=O)O.[NH-]C1CCCCC1[NH-].[Pt+2] (stereo not drawn),T/C,"endpoint: median tumor weight (est.), dose: 6.25 mg/kg/injection, schedule: Q07DX005 (ip), vehicle: suspension in saline",48 % of control
same,T/C,"endpoint: median tumor weight (est.), dose: 12.5 mg/kg/injection, schedule: Q07DX005 (ip), vehicle: suspension in saline",7 % of control and 32 % of control
same,T/C,"endpoint: median tumor weight (est.), dose: 25.0 mg/kg/injection, schedule: Q07DX005 (ip), vehicle: suspension in saline",6 % of control
CCC(C)C1NC(=O)C(CC(C)C)NC(=O)C(C(C)C)NC(=O)C2CSSCC(NC1=O)C(=O)N2 (stereo not drawn) (cyclo(CCVLI); disulfide 1-2; configuration not given here),T/C,"endpoint: median tumor weight change, dose: 0.31 mg/kg/injection, schedule: Q01DX001 (ip), vehicle: Klucel (hydroxypropylcellulose) (HPC)",78 % of control
same,T/C,"endpoint: median tumor weight change, dose: 0.62 mg/kg/injection, schedule: Q01DX001 (ip), vehicle: Klucel (hydroxypropylcellulose) (HPC)",118 % of control
same,T/C,"endpoint: median tumor weight change, dose: 1.25 mg/kg/injection, schedule: Q01DX001 (ip), vehicle: Klucel (hydroxypropylcellulose) (HPC)",74 % of control
same,T/C,"endpoint: median tumor weight change, dose: 2.5 mg/kg/injection, schedule: Q01DX001 (ip), vehicle: Klucel (hydroxypropylcellulose) (HPC)",94 % of control
same,T/C,"endpoint: median tumor weight change, dose: 5.0 mg/kg/injection, schedule: Q01DX001 (ip), vehicle: Klucel (hydroxypropylcellulose) (HPC)",111 % of control
Nc1nc(-c2ccccc2)c(Br)c(=O)[nH]1,T/C,"endpoint: median tumor weight change, dose: 125.0 mg/kg/injection, schedule: Q01DX001 (ip), vehicle: saline with Tween-80",115 % of control
same,T/C,"endpoint: median tumor weight change, dose: 250.0 mg/kg/injection, schedule: Q01DX001 (ip), vehicle: saline with Tween-80",96 % of control
same,T/C,"endpoint: median tumor weight change, dose: 500.0 mg/kg/injection, schedule: Q01DX001 (ip), vehicle: saline with Tween-80",93 % of control
same,T/C,"endpoint: median tumor weight change, dose: 1000.0 mg/kg/injection, schedule: Q01DX001 (ip), vehicle: saline with Tween-80",98 % of control
NC(=O)c1ccc[n+](Cc2c(Cl)cccc2Cl)c1,T/C,"endpoint: median tumor weight (est.), dose: 3.0 mg/kg/injection, schedule: Q07DX005 (ip), vehicle: saline",171 % of control
same,T/C,"endpoint: median tumor weight (est.), dose: 6.0 mg/kg/injection, schedule: Q07DX005 (ip), vehicle: saline",102 % of control
same,T/C,"endpoint: median tumor weight (est.), dose: 12.0 mg/kg/injection, schedule: Q07DX005 (ip), vehicle: saline",211 % of control
same,T/C,"endpoint: median tumor weight (est.), dose: 48.0 mg/kg/injection, schedule: Q07DX005 (ip), vehicle: saline",186 % of control
CC1OC1C(=O)C1(O)C(C)C(O)C23OC2(C(O)c2c(O)cccc2C3=O)C1O (stereo not drawn),T/C,"endpoint: median tumor weight change, dose: 10.0 mg/kg/injection, schedule: Q01DX001 (ip), vehicle: Klucel (hydroxypropylcellulose) (HPC)",84 % of control and 100 % of control and 107 % of control
same,T/C,"endpoint: median tumor weight change, dose: 40.0 mg/kg/injection, schedule: Q01DX001 (ip), vehicle: Klucel (hydroxypropylcellulose) (HPC)",66 % of control and 87 % of control
COc1cc(Cc2nccc3cc(OC)c(OC)cc23)c(C(C)=O)cc1OC,T/C,"endpoint: median tumor weight change, dose: 62.0 mg/kg/injection, schedule: Q01DX001 (ip), vehicle: saline",93 % of control
same,T/C,"endpoint: median tumor weight change, dose: 62.5 mg/kg/injection, schedule: Q01DX001 (ip), vehicle: saline",41 % of control
same,T/C,"endpoint: median tumor weight change, dose: 62.5 mg/kg/injection, schedule: Q01DX001 (ip), vehicle: suspension in saline",54 % of control
same,T/C,"endpoint: median tumor weight change, dose: 125.0 mg/kg/injection, schedule: Q01DX001 (ip), vehicle: saline",33 % of control and 35 % of control
same,T/C,"endpoint: median tumor weight change, dose: 125.0 mg/kg/injection, schedule: Q01DX001 (ip), vehicle: suspension in saline",57 % of control
same,T/C,"endpoint: median tumor weight change, dose: 250.0 mg/kg/injection, schedule: Q01DX001 (ip), vehicle: saline",-6 % of control
CC1CCC2N(C1)CC1C3CC4C(CC(=O)C5CC(O)CCC54C)C3CCC1C2(C)O (stereo not drawn),T/C,"endpoint: mean tumor weight, dose: 2.5 mg/kg/injection, schedule: Q07DX006 (ip), vehicle: saline with Tween-80",87 % of control
same,T/C,"endpoint: mean tumor weight, dose: 5.0 mg/kg/injection, schedule: Q07DX006 (ip), vehicle: saline with Tween-80",81 % of control
same,T/C,"endpoint: mean tumor weight, dose: 10.0 mg/kg/injection, schedule: Q07DX006 (ip), vehicle: saline with Tween-80",90 % of control
same,T/C,"endpoint: mean tumor weight, dose: 20.0 mg/kg/injection, schedule: Q07DX006 (ip), vehicle: saline with Tween-80",89 % of control

# — PubChem BioAssay AID220 (DTP/NCI, 2004)
